In patent US8017612B2, “Piperazine compound and use thereof as a HCV polymerase inhibitor” (priority 2006, dated 2011):

Columns and labels:
[1] = target: T1, HCV polymerase (NS5B) type 1b (Hepatitis C virus genotype 1b, UniProt P26663); assay: Assay of enzyme (HCV polymerase) inhibitory activity, type 1b enzyme; assay type: biochemical, HCV BK strain (type 1b); conditions: HCV polymerase inhibitory activity IC50, 1b, type 1b enzyme
T1 construct: a region encoding NS5B (J Virol 1991 March, 65(3), 1105-13, 544 amino acids after deletion of 47 amino acids on the C-terminal); 6xHis (C); made in house; host or cells: Escherichia coli
Outline: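 IC50 derived from [3H]UTP incorporation into TCA-insoluble RNA, compared with and without test compound. Reaction (25 °C, 60 min, Tris pH 7.5, 5 mM MgCl2): E. coli-expressed 1b NS5B Δ47 with His tag at 0.5 μg/ml, 5 μg/ml run-off substrate RNA, ATP/GTP/CTP 50 μM, UTP 2 μM.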

[2] = target: T2, HCV polymerase (NS5B) type 1a (Hepatitis C virus genotype 1a, UniProt P26664); assay: Assay of enzyme (HCV polymerase) inhibitory activity, type 1a enzyme; assay type: biochemical, HCV type 1a (cloned from the blood of patients); conditions: HCV polymerase inhibitory activity IC50, 1a, type 1a enzyme
T2 construct: made in house; host or cells: Escherichia coli (by the 'similar method' of the 1b enzyme)
Outline: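 Reactions ran 60 min at 25° C in 20 mM Tris-HCl pH 7.5, 5 mM MgCl2, 50 mM NaCl, holding genotype 1a NS5B (1.5 μg/ml, Δ47 C-terminus, 6His), substrate RNA 5 μg/ml, UTP 2 μM with tritiated UTP and other NTPs 50 μM. IC50 derived from incorporated radiolabel in filter-trapped RNA relative to uninhibited reaction.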

| SMILES | IC50 [1] [nM] | IC50 [2] [nM] |
| --- | --- | --- |
| CCCc1ccc(CNC(=O)[C@H]2CN(c3ccc(C(=O)O)c(C)n3)CCN2S(=O)(=O)c2ccc(OC(F)(F)F)cc2)cc1 [Example 822, 2-methyl-6-[(R)-3-(4-propyl-benzylcarbamoyl)-4-(4-trifluoromethoxy-benzenesulfonyl)-piperazin-1-yl]-nicotinic acid] | < 100 | < 100 |
| CCCc1ccc(CNC(=O)[C@H]2CN(c3nc(C)c(C(=O)O)cc3F)CCN2S(=O)(=O)c2ccc(OC(F)(F)F)cc2)cc1 [Example 823, 5-fluoro-2-methyl-6-[(R)-3-(4-propyl-benzylcarbamoyl)-4-(4-trifluoromethoxy-benzenesulfonyl)-piperazin-1-yl]-nicotinic acid] | 100 to 1000 | 100 to 1000 |
| CCCc1ccc(CNC(=O)[C@H]2CN(c3cnc4cncc(C(=O)O)c4n3)CCN2S(=O)(=O)c2ccc(OC(F)(F)F)cc2)cc1 [Example 824, 2-[(R)-3-(4-propyl-benzylcarbamoyl)-4-(4-trifluoromethoxy-benzenesulfonyl)-piperazin-1-yl]-pyrido[3,4-b]pyrazine-8-carboxylic acid] | < 100 | < 100 |
| CCCc1ccc(CNC(=O)[C@H]2CN(c3nc4cn[nH]c(=O)c4s3)CCN2S(=O)(=O)c2ccc([N+](=O)[O-])cc2)cc1 [Example 825, (R)-1-(4-nitro-benzenesulfonyl)-4-(7-oxo-6,7-dihydro-thiazolo[4,5-d]pyridazin-2-yl)-piperazine-2-carboxylic acid 4-propyl-benzylamide] | < 100 | < 100 |
| CCCc1ccc(CNC(=O)[C@H]2CN(c3nc(C)c(CCC(=O)O)s3)CCN2S(=O)(=O)c2ccc(OC(F)(F)F)cc2)cc1 [Example 826, 3-{4-methyl-2-[(R)-3-(4-propyl-benzylcarbamoyl)-4-(4-trifluoromethoxy-benzenesulfonyl)-piperazin-1-yl]-thiazol-5-yl}-propionic acid] | < 100 | < 100 |
| CCCc1ccc(CNC(=O)[C@H]2CN(c3nc(C)c(S(N)(=O)=O)s3)CCN2S(=O)(=O)c2ccc(OC(F)(F)F)cc2)cc1 [Example 827, (R)-4-(4-methyl-5-sulfamoyl-thiazol-2-yl)-1-(4-trifluoromethoxy-benzenesulfonyl)-piperazine-2-carboxylic acid 4-propyl-benzylamide] | < 100 | < 100 |
| CCCc1ccc(CNC(=O)[C@H]2CN(c3nc(C)c(S(=O)(=O)NC)s3)CCN2S(=O)(=O)c2ccc(OC(F)(F)F)cc2)cc1 [Example 828, (R)-4-(4-methyl-5-methylsulfamoyl-thiazol-2-yl)-1-(4-trifluoromethoxy-benzenesulfonyl)-piperazine-2-carboxylic acid 4-propyl-benzylamide] | < 100 | < 100 |
| CCCc1ccc(CNC(=O)[C@H]2CN(c3nc(C)c(S(=O)(=O)N(C)C)s3)CCN2S(=O)(=O)c2ccc(OC(F)(F)F)cc2)cc1 [Example 829, (R)-4-(5-dimethylsulfamoyl-4-methyl-thiazol-2-yl)-1-(4-trifluoromethoxy-benzenesulfonyl)-piperazine-2-carboxylic acid 4-propyl-benzylamide] | < 100 | 100 to 1000 |
| CCCc1ccc(CNC(=O)[C@H]2CN(C(=O)Nc3ccccc3)CCN2S(=O)(=O)c2ccc(OC(F)(F)F)cc2)cc1 [Example 830, (R)-4-(4-trifluoromethoxy-benzenesulfonyl)-piperazine-1,3-dicarboxylic acid 1-phenylamide 3-(4-propyl-benzylamide)] | < 100 | 100 to 1000 |
| CCCc1ccc(CNC(=O)[C@H]2CN(C(=O)Nc3ccccc3C(=O)OC)CCN2S(=O)(=O)c2ccc(OC(F)(F)F)cc2)cc1 [Example 831, 2-{[(R)-3-(4-propyl-benzylcarbamoyl)-4-(4-trifluoromethoxy-benzenesulfonyl)-piperazine-1-carbonyl]-amino}-benzoic acid methyl ester] | > 1000 | > 1000 |
| CCCc1ccc(CNC(=O)[C@H]2CN(c3nc(C)c(S(=O)(=O)NC(C)=O)s3)CCN2S(=O)(=O)c2ccc(OC(F)(F)F)cc2)cc1 [Example 832, (R)-4-(5-acetylsulfamoyl-4-methyl-thiazol-2-yl)-1-(4-trifluoromethoxy-benzenesulfonyl)-piperazine-2-carboxylic acid 4-propyl-benzylamide] | < 100 | < 100 |
| CCCc1ccc(CNC(=O)[C@H]2CN(C(=O)Nc3ccccc3OCc3ccccc3)CCN2S(=O)(=O)c2ccc(OC(F)(F)F)cc2)cc1 [Example 833, (R)-4-(4-trifluoromethoxy-benzenesulfonyl)-piperazine-1,3-dicarboxylic acid 1-[(2-benzyloxy-phenyl)-amide] 3-(4-propyl-benzylamide)] | > 1000 | > 1000 |
| CCCc1ccc(CNC(=O)[C@H]2CN(C(=O)Nc3ccccc3O)CCN2S(=O)(=O)c2ccc(OC(F)(F)F)cc2)cc1 [Example 834, (R)-4-(4-trifluoromethoxy-benzenesulfonyl)-piperazine-1,3-dicarboxylic acid 1-[(2-hydroxy-phenyl)-amide] 3-(4-propyl-benzylamide)] | 100 to 1000 | 100 to 1000 |
| O=C(NCc1ccc(OC(F)(F)F)cc1)[C@H]1CN(c2nc3cn[nH]c(=O)c3s2)CCN1S(=O)(=O)c1ccc([N+](=O)[O-])cc1 [Example 835, (R)-1-(4-nitro-benzenesulfonyl)-4-(7-oxo-6,7-dihydro-thiazolo[4,5-d]pyridazin-2-yl)-piperazine-2-carboxylic acid 4-trifluoromethoxy-benzylamide] | < 100 | < 100 |
| CCC(F)(F)c1ccc(CNC(=O)[C@H]2CN(c3cnc4cncc(C(=O)O)c4n3)CCN2S(=O)(=O)c2ccc(OC(F)(F)F)cc2)cc1 [Example 836, 2-[(R)-3-[4-(1,1-difluoro-propyl)-benzylcarbamoyl]-4-(4-trifluoromethoxy-benzenesulfonyl)-piperazin-1-yl]-pyrido[3,4-b]pyrazine-8-carboxylic acid] | < 100 | < 100 |
| CCCc1ccc(CNC(=O)[C@H]2CN(C(=O)Nc3ccccc3C(=O)OCc3ccccc3)CCN2S(=O)(=O)c2ccc(OC(F)(F)F)cc2)cc1 [Example 837, 2-{[(R)-3-(4-propyl-benzylcarbamoyl)-4-(4-trifluoromethoxy-benzenesulfonyl)-piperazine-1-carbonyl]-amino}-benzoic acid benzyl ester] | > 1000 | > 1000 |
| CCCc1ccc(CNC(=O)[C@H]2CN(C(=O)Nc3ccccc3C(=O)O)CCN2S(=O)(=O)c2ccc(OC(F)(F)F)cc2)cc1 [Example 838, 2-{[(R)-3-(4-propyl-benzylcarbamoyl)-4-(4-trifluoromethoxy-benzenesulfonyl)-piperazine-1-carbonyl]-amino}-benzoic acid] | > 1000 | > 1000 |
| Cc1n[nH]c(=O)c2sc(N3CCN(S(=O)(=O)c4ccc(OC(F)(F)F)cc4)[C@@H](C(=O)NCc4ccc(OC(F)(F)F)cc4)C3)nc12 [Example 839, (R)-4-(4-methyl-7-oxo-6,7-dihydro-thiazolo[4,5-d]pyridazin-2-yl)-1-(4-trifluoromethoxy-benzenesulfonyl)-piperazine-2-carboxylic acid 4-trifluoromethoxy-benzylamide] | < 100 | < 100 |
| CCC(C)(C)c1ccc(CNC(=O)[C@H]2CN(c3nc4cn[nH]c(=O)c4s3)CCN2S(=O)(=O)c2ccc(OC(F)(F)F)cc2)cc1 [Example 840, (R)-4-(7-oxo-6,7-dihydro-thiazolo[4,5-d]pyridazin-2-yl)-1-(4-trifluoromethoxy-benzenesulfonyl)-piperazine-2-carboxylic acid 4-(1,1-dimethyl-propyl)-benzylamide] | < 100 | < 100 |
| CCCCc1ccc(CNC(=O)[C@H]2CN(c3nc4cn[nH]c(=O)c4s3)CCN2S(=O)(=O)c2ccc(OC(F)(F)F)cc2)cc1 [Example 841, (R)-4-(7-oxo-6,7-dihydro-thiazolo[4,5-d]pyridazin-2-yl)-1-(4-trifluoromethoxy-benzenesulfonyl)-piperazine-2-carboxylic acid 4-butyl-benzylamide] | < 100 | < 100 |
| CCCc1ccc(CNC(=O)[C@H]2CN(c3cnc4cncc(C(=O)O)c4n3)CCN2S(=O)(=O)c2ccc(C(F)(F)F)cc2)cc1 [Example 842, 2-[(R)-3-(4-propyl-benzylcarbamoyl)-4-(4-trifluoromethyl-benzenesulfonyl)-piperazin-1-yl]-pyrido[3,4-b]pyrazine-8-carboxylic acid] | < 100 | < 100 |
| CCCc1ccc(CNC(=O)[C@H]2CN(c3cnc4cncc(C(=O)O)c4n3)CCN2S(=O)(=O)c2ccc([N+](=O)[O-])cc2)cc1 [Example 843, 2-[(R)-4-(4-nitro-benzenesulfonyl)-3-(4-propyl-benzylcarbamoyl)-piperazin-1-yl]-pyrido[3,4-b]pyrazine-8-carboxylic acid] | < 100 | < 100 |
| CCCc1ccc(CNC(=O)[C@H]2CN(c3cnc4cncc(C(=O)O)c4n3)CCN2S(=O)(=O)c2ccc(C(C)(C)C)cc2)cc1 [Example 844, 2-[(R)-4-(4-tert-butyl-benzenesulfonyl)-3-(4-propyl-benzylcarbamoyl)-piperazin-1-yl]-pyrido[3,4-b]pyrazine-8-carboxylic acid] | < 100 | < 100 |
